Like-named read-outs stand apart in the source and are kept apart here.
Key:
Assay type in all cases: cell-based
[1] = tested on: SU-DHL-8; test: CellTiterGlo viability, DLBCL cell line; conditions: single agent, 2 days; for IC50: read-out: Abs IC50
Description: (§1) In addition, all media contained penicillin (100 IU/ml), streptomycin (100 μg/ml) and L-glutamine (2 mM). Unless otherwise mentioned, culture media and supplements were from Amimed/Bioconcept (Allschwil, Switzerland).
(§2) Cell lines were cultured at 37° C. in a humidified atmosphere containing 5% CO2 and expanded in T-75 flasks. In all cases cells were thawed from frozen stocks, expanded through ≥1 passage using appropriate dilutions, counted and assessed for viability using a CASY cell counter (Omni Life Science, Bremen, Germany) prior to plating 25 ul/well at the densities indicated in Table 1 into 384-well plates (Corning). All cell lines were determined to be free of mycoplasma contamination by PCR assay performed at Idexx Radii (Columbia, Mo., USA) and misidentification ruled out by assessment of a panel of 48 Small Nucleotide Polymorphisms (SNPs) at Asuragen (Austin, Tex., USA) or in-house.
(§3) Stock solutions of compounds were prepared at a concentration of 10 mM in DMSO (Sigma) and stored at −20° C. Where necessary to afford a full dose-response curve, the stock solutions were pre-diluted in DMSO to 1′000-fold the desired start concentration (see Table 2). On the day after cell seeding, eight 2.5-fold serial dilutions of each compound were dispensed, either individually or in all possible permutations in a checkerboard fashion, directly into the cell assay plates using a non-contact 300D Digital Dispenser (ILCAN, Mannedorf, Switzerland) as outlined in FIG. 4. The final concentration of DMSO was 0.2% in all wells.
(§4) Effects of the single agents as well as their checkerboard combinations on cell viability were assessed after 2 days of incubation at 37° C./5% CO2 by quantification of cellular ATP levels using CellTiterGlo (Promega, Madison, Wis., USA) at 25 μL reagent/well and n=2 replicate plates per condition. Luminescence was quantified on a M1000 multipurpose platereader (ILCAN, Mannedorf, Switzerland). The number/viability of cells at time of compound addition was likewise assessed and used to assess the degree of the population doubling time of a particular cell line.
(§5) Single agent IC50s were calculated using standard four-parametric curve fitting. […] IC50 are defined as the compound concentration at which the CTG signal is reduced to 50% of that measured for the vehicle (DMSO) control.

[2] = tested on: RL; test: CellTiterGlo viability, DLBCL cell line; conditions: single agent, 2 days; for IC50: read-out: Abs IC50
Description: as §1
(§6) Cell lines were cultured at 37° C. in a humidified atmosphere containing 5% CO2 and expanded in T-75 flasks. In all cases cells were thawed from frozen stocks, expanded through ≥1 passage using appropriate dilutions, counted and assessed for viability using a CASY cell counter (Omni Life Science, Bremen, Germany) prior to plating 25 ul/well at the densities indicated in Table 1 into 384-well plates (Corning).
as §3, §4, §5

[3] = tested on: HT; test: CellTiterGlo viability, DLBCL cell line; conditions: single agent, 2 days; for IC50: read-out: Abs IC50
Description: as §1, §2, §3, §4
Single agent IC50s were calculated using standard four-parametric curve fitting. […] All calculations were performed using the Combination Analysis Module in-house software. IC50 are defined as the compound concentration at which the CTG signal is reduced to 50% of that measured for the vehicle (DMSO) control.

[4] = tested on: NALM-6; test: CellTiterGlo viability, B-ALL cell line; conditions: for IC50: NALM-6, B-ALL, single agent, 72 h; for growth inhibition: NALM-6 cells, fourth lowest concentration tested (FIG. 11, top left panel)
Description: In addition, all media contained penicillin (100 IU/ml), streptomycin (100 μg/ml) and L-glutamine (2 mM). […] All cell lines were determined to be free of mycoplasma contamination in-house. Stock solutions of compounds were prepared at a concentration of 5 mM in DMSO and stored at −20° C. In order to analyse the activity of the compounds as single agents, cells were seeded and treated with nine 2-fold serial dilutions of each compound dispensed individually directly into the cell assay plates. […] All the conditions were tested in triplicates. Luminescence was quantified on a multipurpose plate reader. Single agent IC50s were calculated using standard four-parametric curve fitting. […] In order to analyse the activity of the compounds in combination, cells were seeded and treated with seven or eight 3.16-fold serial dilutions of each compound dispensed, either individually or in all possible permutations in a checkerboard fashion, directly into the cell assay plates as indicated in FIG. 1. […] For B-ALL cell lines, two independent experiments, each one performed in duplicates, were performed. For T-ALL cell lines, one experiment performed in triplicate was performed. Luminescence was quantified on a multipurpose plate reader. […] All calculations were performed using Chalice TM Bioinformatics Software available in Horizon website.

[5] = tested on: OCI-LY-19; test: CellTiterGlo viability, DLBCL cell line; conditions: single agent, 2 days; for IC50: read-out: Abs IC50
Description: as §1, §6, §3, §4, §5

[6] = tested on: HPB-ALL; test: CellTiterGlo viability, T-ALL cell line; conditions: single agent, 72 h
Description: In addition, all media contained penicillin (100 IU/ml), streptomycin (100 μg/ml) and L-glutamine (2 mM). Cell lines were cultured at 37° C. in a humidified atmosphere containing 5% CO2 and expanded in T-150 flasks. In all cases cells were thawed from frozen stocks, expanded through ≥1 passage using appropriate dilutions, counted and assessed for viability using a CASY cell counter prior to plating 150 ul/well at the densities indicated in Table 9 into 96-well plates. All cell lines were determined to be free of mycoplasma contamination in-house.
Stock solutions of compounds were prepared at a concentration of 5 mM in DMSO and stored at −20° C. In order to analyse the activity of the compounds as single agents, cells were seeded and treated with nine 2-fold serial dilutions of each compound dispensed individually directly into the cell assay plates. Effects of the compounds on cell viability were assessed after 3 days of incubation at 37° C./5% CO2 by quantification of cellular ATP levels using CellTiterGlo at 75 μL reagent/well. All the conditions were tested in triplicates. Luminescence was quantified on a multipurpose plate reader. Single agent IC50s were calculated using standard four-parametric curve fitting. IC50 is defined as the compound concentration at which the CTG signal is reduced to 50% of that measured for the vehicle (DMSO) control.
In order to analyse the activity of the compounds in combination, cells were seeded and treated with seven or eight 3.16-fold serial dilutions of each compound dispensed, either individually or in all possible permutations in a checkerboard fashion, directly into the cell assay plates as indicated in FIG. 1. Effects of the single agents as well as their checkerboard combinations on cell viability were assessed after 3 days of incubation at 37° C./5% CO2 by quantification of cellular ATP levels using CellTiterGlo at 75 μL reagent/well. For B-ALL cell lines, two independent experiments, each one performed in duplicates, were performed. For T-ALL cell lines, one experiment performed in triplicate was performed. Luminescence was quantified on a multipurpose plate reader.
Potential synergistic interactions between compound combinations were assessed using the Excess Inhibition 2D matrix according to the Loewe additivity model and are reported as Synergy Score (Lehar et al, Nat Biotechnol. 2009 July; 27(7): 659-666). All calculations were performed using Chalice TM Bioinformatics Software available in Horizon website. The doubling time indicated in Table 9 is the mean of the doubling time obtained in the different passages (in T-150 flasks) performed from the thawing of the cells to their seeding in the 96-well plates.

Structure (SMILES): Cl.O=C(c1cc(-c2cc3c(cc2C(=O)N2Cc4ccccc4C[C@H]2CN2CCOCC2)OCO3)n2c1CCCC2)N(c1ccccc1)c1ccc(O)cc1 [Compound 1, HCl, N-(4-hydroxyphenyl)-3-{6-[((3S)-3-(4-morpholinylmethyl)-3,4-dihydro-2(1H)-isoquinolinyl)carbonyl]-1,3-benzodioxol-5-yl}-N-phenyl-5,6,7,8-tetrahydro-1-indolizine carboxamide hydrochloride]
- IC50 ([1]; Homo sapiens, 48 h): ≥ 10000 nM
- Max Inh [1]: 28.7%
- IC50 ([2]; Homo sapiens, 48 h): 281 nM
- Max Inh [2]: 99.0%
- IC50 ([3]; Homo sapiens, 48 h): ≥ 10000 nM
- Max Inh [3]: 37.2%
- IC50 ([4]; Homo sapiens): 3630 nM
- growth inhibition [4]: 8%
- IC50 ([5]; Homo sapiens, OCI-LY19, 48 h): 89.5 nM
- Max Inh [5]: 100.1%
- IC50 ([6]; Homo sapiens, HPBALL): 4500 nM

Structure (SMILES): COc1ccccc1-c1nccc(COc2ccccc2C[C@@H](Oc2ncnc3sc(-c4ccc(F)cc4)c(-c4ccc(OCCN5CCN(C)CC5)c(Cl)c4C)c23)C(=O)O)n1 [Compound 3, (2R)-2-{[(5Sa)-5-{3-chloro-2-methyl-4-[2-(4-methylpiperazin-1-yl)ethoxy]phenyl}-6-(4-fluorophenyl)thieno[2,3-d]pyrimidin-4-yl]oxy}-3-(2-{[2-(2-methoxyphenyl)pyrimidin-4-yl]methoxy}phenyl)propanoic acid]
- Max Inh [1]: 95.6%
- IC50 [1]: 305 nM
- Max Inh [2]: 95.4%
- IC50 [2]: 3030 nM
- Max Inh [3]: 99.3%
- IC50 [3]: 6.38 nM
- IC50 [4]: 120 nM
- growth inhibition [4]: 6%
- Max Inh [5]: 98.5%
- IC50 [5]: 60.4 nM
- IC50 [6]: 660 nM
